According to patent US20210244790A1 (priority 2018, published 2021):
≈ marks a conversion by molar mass, not a printed value. Like-named read-outs stand apart in the source and are kept apart here. Numbered stars: 1 amine (or outer) side, 2 acyl side, 3 side chain; on linkers, the order of the positions; unused ones are H or OH. Bridge positions count the residues as written; N and C are the ends. Square brackets hold non-standard residues; d marks the D form. Peptide text beside a SMILES is read from it. ξ: configuration not given here. ξAsn(3ξ-OH) = NC(=O)C(O)C(N)C(=O)O; X1 = CC(C)CCCC(CC(=O)[*:1])O[*:2]; NMeF = CN[CH](Cc1ccccc1)C(=O)O; NMeV = CN[CH](C(=O)O)C(C)C; Orn = NCCC[CH](N)C(=O)O

Key:
[1] = test system: methicillin-resistant Staphylococcus aureus (MRSA) on the skin; test: Efficacy evaluation test by single dose topical application in murine MRSA skin infection model; assay type: in vivo, mice; conditions: preliminary test
MRSA [2] = conditions: CAMHB with 5% FBS
[3] = test system: MRSA Used in Animal Model; test: microbe, parasite or virus in culture; conditions: Staphylococcus aureus
[4] = test system: clinically isolated MRSA strain; test: microbe, parasite or virus in culture; conditions: Staphylococcus aureus, read-out: anti-MRSA activity (MIC) of boric acid alone
MRSA [5] = test: microbe, parasite or virus in culture; conditions: Staphylococcus aureus, read-out: MIC in the presence of 5% FBS, Anti-MRSA activity of 3rd generation
Propionibacterium acnes [6] = test: microbe, parasite or virus in culture; conditions: Cutibacterium acnes, read-out: antibacterial activity (MIC) of boric acid alone
MRSA [7] = test: Additional cross MIC test using 5% FBS-added CAMHB, with FIC index; conditions: concentration of each component in the combination
Propionibacterium acnes [8] = test: Number of cells after 48 hour anaerobic incubation in 5% FBS-supplemented GAM medium; assay type: cell-based; conditions: lotilibcin 0.1 μg/mL alone, initial 2.8 × 10^6
MRSA [9] = test system: MRSA
[10] = read-out: Minimum Inhibitory Concentration Against MRSA Used in Animal Model (MIC), CAMHB, no 5% FBS
[11] = read-out: Minimum Inhibitory Concentration Against MRSA Used in Animal Model (MIC), CAMHB, with 5% FBS

Row | Structure (SMILES) | change in the number of cells (CFUs in skin tissue) ([1]; 1% boric acid alone, single topical dose) | antibacterial efficacy in animal infection models ([1]; boric acid alone 0.1% to 1%) | minimum concentration of boric acid necessary for enhancing the anti-MRSA activity of lotilibcin (MRSA [2]) | MIC [3, 10] | MIC [3, 11] | MIC ([3]; read-out: concentration exhibiting antibacterial activity (MIC), used solely, not influenced by presence or absence of serum component (FBS)) | MIC [4] | MIC (MRSA [5]) | MIC (Propionibacterium acnes [6]) | point of synergy (concentration) in table 7 (MRSA [7]) | antibacterial efficacy (change in number of CFUs in skin tissue) ([1]; 0.5% lotilibcin alone, single topical dose) | antibacterial efficacy (change in number of CFUs in skin tissue) ([1]; lotilibcin alone 0.02%, 0.2%, 0.5%, single topical dose, 24 hours) | Number of cells After 48 hours (Propionibacterium acnes [8]) | MIC in the presence of 5% FBS, Anti-MRSA activity of 1st generation (MRSA [9]; 1st generation bacteria) | MIC in the presence of 5% FBS, Anti-MRSA activity of 3rd generation (MRSA [9]; 3rd generation bacteria, test substance alone) | Antibacterial activity of lotilibcin (MIC) (Bacillus anthracis; No serum) | Antibacterial activity of lotilibcin (MIC) (Bacillus anthracis; With serum (5% FBS))
1 | OB(O)O [Boric acid] | on the same level as or worse than the result of the negative control | no antibacterial efficacy | 100 µg/mL | 2500 µg/mL (≈ 40.4 mM) | 2500 µg/mL (≈ 40.4 mM) | 2500 µg/mL (≈ 40.4 mM) | 2500 µg/mL (≈ 40.4 mM) | 5000 µg/mL | 1250 µg/mL (≈ 20.2 mM) | 313 µg/mL | – | – | – | – | – | – | –
2 | CC(C)CCCC1CC(=O)NC(CO)C(=O)NC(C(O)C(N)=O)C(=O)NC(CO)C(=O)NCC(=O)N(C)C(Cc2ccccc2)C(=O)NC(CC(C)C)C(=O)NC(CCCN)C(=O)NC(CCC(=O)O)C(=O)NC(CC(N)=O)C(=O)NC(Cc2c[nH]c3ccccc23)C(=O)NC(CCCN)C(=O)N(C)C(C(C)C)C(=O)O1 (centres unmarked) [Lotilibcin, lotilibcin] (S[ξAsn(3ξ-OH)]SG[NMeF]L[Orn]ENW[Orn][NMeV]; linker N-C via X1; configuration not given here) | – | – | – | – | – | – | – | – | – | 0.03 µg/mL | comparable to that of 2% mupirocin | dose-dependent efficacy | 1.3 × 10^6 CFU/mL | 0.25 µg/mL | 32 µg/mL | 1.0 µg/mL | 0.1 µg/mL
3 | C/C(=C\C(=O)OCCCCCCCCC(=O)O)C[C@@H]1OC[C@H](C[C@@H]2O[C@H]2[C@@H](C)[C@H](C)O)[C@@H](O)[C@H]1O [Mupirocin, mupirocin] | – | – | – | 0.125 µg/mL (≈ 0.00025 mM) | 0.5 µg/mL (≈ 0.000999 mM) | – | – | – | – | – | – | – | – | – | – | – | –
